According to PubChem BioAssay AID1645864 (Buhrlage Lab, Dana-Farber Cancer Institute and Novartis …, 2021):
pIC50: −log10 of the molar value. Active and inactive are the calls of the source.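 Rule for the calls: active = maximal inhibition of USP17 at or above 30% in the confirmation dose-response, a value not among the printed readouts; inactive = the rest.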

Molecular target: Ubiquitin carboxyl-terminal hydrolase 17-like protein 5 (Homo sapiens) (UniProt A8MUK1)
Assay: ubiquitin-specific protease 17 DUB inhibitors, concentration-effect assay, cell-free, verification of initial screening actives (AID 1645864)
Conditions: purified USP17, ubiquitin-rhodamine cleavage fluorescence, 3 h

Ubiquitin carboxyl-terminal hydrolase 17-like protein 5 (Homo sapiens), sequence (A8MUK1 whole entry, looked up): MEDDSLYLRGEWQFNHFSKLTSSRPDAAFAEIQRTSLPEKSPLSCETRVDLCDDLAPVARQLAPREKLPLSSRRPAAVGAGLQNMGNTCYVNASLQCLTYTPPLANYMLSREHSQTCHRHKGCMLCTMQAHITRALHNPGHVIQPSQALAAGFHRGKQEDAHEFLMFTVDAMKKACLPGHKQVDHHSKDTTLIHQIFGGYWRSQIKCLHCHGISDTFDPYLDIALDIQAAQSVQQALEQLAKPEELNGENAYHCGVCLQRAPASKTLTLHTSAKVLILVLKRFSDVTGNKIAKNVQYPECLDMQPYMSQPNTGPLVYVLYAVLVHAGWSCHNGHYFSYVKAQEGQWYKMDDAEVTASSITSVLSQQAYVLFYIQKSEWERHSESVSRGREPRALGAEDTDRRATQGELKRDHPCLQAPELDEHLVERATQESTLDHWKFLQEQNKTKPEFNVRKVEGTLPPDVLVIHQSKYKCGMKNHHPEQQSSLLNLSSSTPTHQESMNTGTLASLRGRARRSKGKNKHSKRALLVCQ

pIC50 | IC50 | Compound
4.38 |  | Cc1ccc(NC(=O)Cn2c(Nc3cccc(C)c3)nc(C)cc2=O)cc1
4.77 |  | CC(=O)c1sc(NC(=O)c2ccccc2-c2ccc(C(F)(F)F)cc2)nc1C
5.31 |  | Cc1ccc(Cl)c(-n2nnc(C(=O)Nc3ccccc3C#N)c2C)c1
4.64 |  | Cc1ccc(CNC(=O)c2cccc(N3C(=O)N4CCc5c([nH]c6ccccc56)[C@@]4(C)C3=O)c2)cc1
4.55 |  | O=C(Nc1ccc(F)cc1F)NC1Cc2ccccc2C1
 | > 50 µM (inactive) | CC1=C2C(=NCCN1)C(=O)N(c1ccccc1)C2c1cccnc1 (configuration not stated)
5.63 |  | CNC(=O)c1cc2c(=O)n3cccc(C)c3nc2n1Cc1ccccc1
6.48 |  | Cc1cccc(-c2nc3n(CC(=O)Nc4ccc(Cl)cc4)c(C)cc(=O)n3n2)c1
 | > 50 µM (inactive) | CSc1nc2ncc3c(=O)n(CCc4ccccc4)ccc3n2n1
4.97 |  | Cc1cccc(NC(=O)Nc2nnc(CC(=O)NCc3ccccc3)s2)c1
4.60 |  | Cc1cccc(NC(=O)CN2C(=O)CC(c3ccccc3)S(=O)(=O)c3ccccc32)c1C (configuration not stated)
4.57 |  | CCn1c(=O)c(=O)[nH]c2cc(C(=O)Nc3cccc(-c4csc(C)n4)c3)ccc21
4.45 |  | COc1ccc(CNC(=O)c2[nH]nc3c2CCc2ccccc2-3)cc1
4.92 |  | O=C(CC1C(=O)Nc2nc(-c3ccccc3)nn21)Nc1cccc2ccccc12 (configuration not stated)
4.64 |  | Cc1ccccc1OCCSc1nc2ccccc2n1CC(=O)NC1CC1
 | > 50 µM (inactive) | Cc1nn(C)c2c1[C@@H](c1ccc(F)cc1)[C@H](NC(=O)c1ccccc1)C(=O)N2
4.54 |  | COc1ccccc1-c1nc(-c2cn(-c3ccc(C)cc3)nn2)no1
 | > 50 µM (inactive) | Cc1ccccc1NC(=O)c1ccn(COc2ccc(Cl)cc2)n1
 | > 50 µM (inactive) | CN(C(=O)c1ccncc1)[C@H]1CC[C@@]2(C)C[C@H](c3ccccc3)C[C@](C)(O2)[C@@H]1O
 | > 50 µM (inactive) | COc1ccc(NC(=O)c2nnn(-c3ccccc3)c2C)cc1OC
4.48 |  | O=C(CC1Oc2ccccc2NC1=O)Nc1ccccc1Br (configuration not stated)
 | > 50 µM (inactive) | CCn1c(=O)c2ccccc2n(Cc2nc(-c3ccccc3OC)no2)c1=O
5.57 |  | Cc1ccccc1NC(=O)C(C)n1c(=O)cc(-c2ccccc2)c2c(C)nn(C)c21 (configuration not stated)
5.39 |  | O=C(Nc1nc2ccccc2s1)c1ccc2c(c1)C(=O)N(Cc1cccnc1)C2=O
5.60 |  | Cc1ccc(CNC(=O)CCCn2c(=O)c3sccc3n(CC(=O)OCc3ccccc3)c2=O)cc1
4.47 |  | COc1ccc(C)cc1NC(=O)C1CC(=O)Nc2nc3ccccc3n21 (configuration not stated)
4.36 |  | Cn1c2ccccc2c2ncn(Cc3ccc(F)cc3)c(=O)c21
4.72 |  | CC1=C(C)C(N(c2ccccc2)c2ccccc2)N(CCC(C)C)C1=O (configuration not stated)
 | > 50 µM (inactive) | Cc1ccc(CNC(=O)c2cnc3ccccc3n2)cc1
4.72 |  | COc1ccc(C)cc1NC(=O)C1CC(=O)Nc2nc(SCc3ccccc3)nn21 (configuration not stated)

The remaining lines, values behind:

Compound | pIC50 | IC50
COc1cccc(C(=O)Oc2ccc3c(=O)c(-c4ccc(OC)c(OC)c4)coc3c2)c1 | 6.78 | 
CN1C(=O)[C@@]23C[C@]4([C@@]56C[C@]78SS[C@](CO)(C(=O)N7[C@@H]5Nc5ccccc56)N(C)C8=O)c5ccccc5N[C@@H]4N2C(=O)[C@]1(CO)SS3 |  | > 50 µM (inactive)
CCCCc1nc2sc3c(SCC(=O)Nc4cccc(C)c4)ncnc3c2c2c1CCC2 | 4.86 | 
COc1ccc(CCN2COc3c(cc(Cl)c4cccnc34)C2)cc1OC | 4.61 | 
CCOc1ccc2nc(NC(=O)C3CCN(S(=O)(=O)c4ccc5c(c4)CC(C)N5C(C)=O)CC3)sc2c1 (configuration not stated) |  | > 50 µM (inactive)
O=C1Cc2ccccc2C(=O)N1c1ccc2c(c1)OCO2 | 4.65 | 
Cc1ccc(NC(=O)Cn2c(-n3nc(C)cc3C)nc3c(c2=O)CCCC3)c(C)c1 | 4.49 | 
CC(CCc1ccccc1)NC(=O)Cn1c(=O)c2cccn2c2ccccc21 (configuration not stated) | 4.93 | 
COc1cccc(N2CCN(C(=O)Nc3ccc4c(c3)NC(=O)CO4)CC2)c1 | 4.57 | 
COC(=O)c1cc2c(ccn2C)n1CC(=O)NC1CC1 |  | > 50 µM (inactive)
C=C(NC(=O)C(=C)NC(=O)c1csc(C2=N[C@@H]3c4csc(n4)[C@H]4NC(=O)c5csc(n5)[C@H]([C@](C)(O)[C@@H](C)O)NC(=O)C5CSC(=N5)/C(=C/C)NC(=O)C([C@@H](C)O)NC(=O)c5csc(n5)[C@]3(CC2)NC(=O)[C@H](C)NC(=O)C(=C)NC(=O)[C@H](C)NC(=O)C([C@@H](C)CC)NC2C=Cc3c(C(C)O)cc(nc3[C@H]2O)C(=O)OC4C)n1)C(N)=O (some centres not stated) |  | > 50 µM (inactive)
CSc1cccc(NC(=O)CCc2ccc3nc(NC(C)=O)sc3c2)c1 |  | > 50 µM (inactive)
CO[C@H]1CC[C@H](O)c2c1oc1c3c4c(c(O)c1c2=O)-c1c(cc2c(Cl)c(C)n(N)c(=O)c2c1O)C[C@@H]4OCO3 | 4.86 | 
Cc1ccc(S(=O)(=O)N(C)C)cc1NC(=O)Cc1ccc(Cl)c(Cl)c1 |  | > 50 µM (inactive)
O=C(Cn1cnc2ccccc21)Nc1ccc2c(c1)CCC2 | 4.55 | 
Cc1cc(C)nc(-n2nc(C)c3c2NC(=O)CSC3c2ccc(F)cc2F)n1 (configuration not stated) | 4.43 | 
CCc1nc2c(NC(=O)Nc3cccc(C(=O)OC)c3)cccn2n1 |  | > 50 µM (inactive)
Cc1ccc(NC(=O)C2CCN(c3cncnc3N3CCCC3)CC2)cc1 |  | > 50 µM (inactive)
COc1ccc(-c2cc(-c3nnc(CSc4nc5ccccc5n4C)o3)c3ccccc3n2)cc1OC |  | > 50 µM (inactive)
c1ccc2c(c1)CCc1c-2nc2ccccc2c1N1CCOCC1 |  | > 50 µM (inactive)
O=C(c1ccc2occc2c1)N1CCC(S(=O)(=O)c2ccc(-c3ccco3)cc2)CC1 |  | > 50 µM (inactive)

Compound | pIC50 | IC50
Cc1ccc(C)c(S(=O)(=O)N2CCC3(CC2)NC(=O)c2ccccc2N3)c1 | 4.34 | 
O=C(COc1ccc(F)cc1)Nc1cc(F)c2nc(N3CCOCC3)ccc2c1 | 5.36 | 
Nc1c(C(=O)c2cccs2)oc2nc(-c3ccccc3)cc(-c3ccco3)c12 |  | > 50 µM (inactive)
O=C(CN(Cc1ccc(Cl)cc1)S(=O)(=O)c1ccc(Cl)cc1)N1CCOCC1 |  | > 50 µM (inactive)
O=c1c2ccccc2c(-c2nc(-c3ccncc3)no2)cn1-c1ccccc1 | 5.56 | 
CCCn1c(=O)n(CC(=O)c2ccccc2F)c2c(C(N)=O)nc(-c3ccco3)nc21 |  | > 50 µM (inactive)
CCc1ccc(OCc2nnc(SCC(=O)Nc3ccccc3OC)n2Cc2ccccc2)cc1 |  | > 50 µM (inactive)
COc1ccc2nc3c(cc2c1)c(=O)n(C)c1c3c(=O)n(-c2ccccc2)c(=O)n1-c1ccccc1 |  | > 50 µM (inactive)
Cc1cc(C(F)(F)F)n2nc(C3CCN(C(=O)c4cnn(C)c4C)C3)cc2n1 (configuration not stated) | 4.52 | 
COc1ccc(NC(=O)C2CCN(c3cncnc3N(C)C)CC2)cc1OC |  | > 50 µM (inactive)
COC(=O)[C@]1(O)O[C@@]2(C(=O)OC)c3c(oc4cc(C)cc(O)c4c3=O)[C@H]3c4c(oc5cc(C)cc(O)c5c4=O)C[C@H]1[C@H]32 |  | > 50 µM (inactive)
CCCc1cc(=O)n2[nH]c(COc3ccccc3)c(-c3ccccc3)c2n1 | 4.38 | 
COC(=O)c1cc(C)sc1NC(=O)c1cccc(OC)c1OC |  | > 50 µM (inactive)
Cc1ccc(Nc2nc(Nc3cccc(Cl)c3)nc3nccnc23)cc1 |  | > 50 µM (inactive)
COc1ccc2nc(NC(=O)C(CC(C)C)NS(=O)(=O)c3ccc4c(c3)CCN4C(C)=O)sc2c1 (configuration not stated) | 4.53 | 
CC1(C)CC(n2[nH]c(=O)c3c2NC(=O)CSC3c2ccc(OCc3ccccc3)cc2)CCO1 (configuration not stated) | 4.68 | 
CN(C)C(=O)CSc1nnc(-c2cccc(Cl)c2)n1-c1ccc(Cl)c(C(F)(F)F)c1 | 5.55 | 
O=C(COc1ccc2oc3c(c2c1)CCCC3)Nc1ccccn1 | 4.60 | 
CC(C)c1ccc(C(C(=O)NC2CCCCC2)N(C(=O)c2cnccn2)c2cccc(F)c2)cc1 (configuration not stated) | 4.57 | 
Fc1ccc(Cc2nc(-c3ccc4nncn4c3)no2)cc1 |  | > 50 µM (inactive)
CCn1cc(NC(=O)CN2CCC3(CC=CCOC3)CC2)c(C)n1 |  | > 50 µM (inactive)

Compound | pIC50 | IC50
COc1ccc(-c2cc(C(=O)N3CCN(c4ccc([N+](=O)[O-])cc4)CC3)[nH]n2)cc1 |  | > 50 µM (inactive)
Fc1cccc(-n2cc(-c3noc(-c4ccc[nH]4)n3)nn2)c1 | 4.44 | 
Cn1nccc1C(=O)N1CCCCC1c1ncc(Cc2ccc(Cl)cc2)o1 (configuration not stated) |  | > 50 µM (inactive)
COc1ccc(CC(NC(C)=O)C(=O)NC2CCN(c3c(Cc4ccccc4)c(C)nc4ncnn34)CC2)cc1OC (configuration not stated) |  | > 50 µM (inactive)
O=C(Nc1cccc2ccccc12)C1CCCN(S(=O)(=O)Cc2ccccc2)C1 (configuration not stated) | 5.07 | 
Cc1ccccc1C(=O)Nc1ccc(Cc2ccc(NC(=O)c3ccccc3C)c(O)c2)cc1O |  | > 50 µM (inactive)
c1csc(CCN2CCc3nc4cccnc4cc3C2)c1 |  | > 50 µM (inactive)
O=C(NCCc1ccccc1)c1nnn(Cc2cccc(Cl)c2)c1-n1cccc1 |  | > 50 µM (inactive)
COC1=CC(=O)c2c(O)c3c(c(C)c2C1=O)C[C@@]1(O)[C@H](O[C@H]2CC[C@H](O[C@H]4C[C@@](C)(O)[C@H](OC(=O)c5c(C)ccc(C)c5O)[C@H](C)O4)[C@@H](C)O2)C(=O)C(C(C)=O)=C(O)[C@@]1(O)C3=O | 5.87 | 
Cc1cc(C(=O)N2CCN(C3CCN(Cc4ccc(Cl)o4)CC3)C(=O)C2)c(C)o1 |  | > 50 µM (inactive)
Cc1ccc(C(=O)Nc2cc3c4c(c2)CC(=O)N4CCC3)cc1 |  | > 50 µM (inactive)
CCN(c1ccc(NC(=O)CSc2nnc(-c3ccccc3)n2-c2ccc(OC)c(OC)c2)cc1)C(C)C | 5.30 | 
O=C(CN1C(=O)COc2ccc(Cl)cc21)Nc1cccc2ncccc12 |  | > 50 µM (inactive)
O=C1CC(O)C(C2=CC(=O)c3c(O)cccc3C2=O)O1 (configuration not stated) | 6.63 | 
CC(=O)c1ccccc1NC(=O)COc1ccc(-c2ccc(C#N)cc2)cc1 | 5.58 | 
c1ccc(-n2nnc(-c3noc(-c4cccnc4)n3)c2-c2ccncc2)cc1 | 4.55 | 
CC(C)N1C[C@@H]2C[C@H](NS(=O)(=O)c3cccc(C#N)c3)CN2Cc2ccccc21 |  | > 50 µM (inactive)
O=C(Cn1cnc(-c2noc(-c3ccncc3)n2)c1)N1CCN(c2ccccc2F)CC1 |  | > 50 µM (inactive)
O=C1Oc2nc3ccccc3cc2CN1Cc1ccco1 | 4.62 | 
Cc1c(CC(=O)Nc2nn[nH]n2)c(=O)oc2cc3c(cc12)CCC1(CCCCC1)O3 |  | > 50 µM (inactive)
